Results: the NIST ThermoML archive (doi:10.1021/acs.jced.8b00236)

Assay: mn = molality of the nth substance listed, in mol/kg
Settings: 75 kPa, Liquid; for viscosity: Capillary tube (Ostwald / Ubbelohde) method; for speed of sound: Frequency=3 MHz, Single path-length method; for mass density: Vibrating tube method

NCCCC(=O)O [4-aminobutanoic acid] + O
Settings	mass density [kg/m3]	speed of sound [m/s]	viscosity [mPa·s]
288.15 K, m1 = 0.1389	1003.34	1478.5	1.204
288.15 K, m1 = 0.2788	1007.5	1490.3	1.252
288.15 K, m1 = 0.4194	1011.57	1501.8	1.313
288.15 K, m1 = 0.56	1015.51	1513	1.376
288.15 K, m1 = 0.702	1019.39	1523.9	1.452
288.15 K, m1 = 0.8449	1023.19	1534.5	1.515
288.15 K, m1 = 0.9892	1026.91	1544.8	1.591
288.15 K, m1 = 1.132	1030.5	1554.5	1.672
293.15 K, m1 = 0.1389	1002.43	1494.4	1.054
293.15 K, m1 = 0.2788	1006.57	1506	1.098
293.15 K, m1 = 0.4194	1010.61	1517.4	1.148
293.15 K, m1 = 0.56	1014.53	1528.5	1.206
293.15 K, m1 = 0.702	1018.37	1539.6	1.265
293.15 K, m1 = 0.8449	1022.12	1550.5	1.325
293.15 K, m1 = 0.9892	1025.79	1561.2	1.393
293.15 K, m1 = 1.132	1029.32	1571.5	1.464
298.15 K, m1 = 0.1389	1001.25	1508.1	0.936
298.15 K, m1 = 0.2788	1005.35	1519.3	0.975
298.15 K, m1 = 0.4194	1009.36	1530.3	1.022
298.15 K, m1 = 0.56	1013.22	1541.2	1.068
298.15 K, m1 = 0.702	1017.01	1551.9	1.125
298.15 K, m1 = 0.8449	1020.7	1562.2	1.178
298.15 K, m1 = 0.9892	1024.31	1572.5	1.243
298.15 K, m1 = 1.132	1027.75	1582.3	1.307
303.15 K, m1 = 0.1389	999.81	1520.1	0.835
303.15 K, m1 = 0.2788	1003.88	1530.9	0.874
303.15 K, m1 = 0.4194	1007.84	1541.6	0.91
303.15 K, m1 = 0.56	1011.67	1552.1	0.955
303.15 K, m1 = 0.702	1015.43	1562.4	0.994
303.15 K, m1 = 0.8449	1019.1	1572.4	1.037
303.15 K, m1 = 0.9892	1022.68	1582.3	1.095
303.15 K, m1 = 1.132	1026.12	1591.8	1.156
308.15 K, m1 = 0.1389	998.155	1530.4	0.753
308.15 K, m1 = 0.2788	1002.19	1540.9	0.788
308.15 K, m1 = 0.4194	1006.12	1551.3	0.822
308.15 K, m1 = 0.56	1009.94	1561.4	0.853
308.15 K, m1 = 0.702	1013.68	1571.3	0.894
308.15 K, m1 = 0.8449	1017.35	1581	0.94
308.15 K, m1 = 0.9892	1020.93	1590.6	0.991
308.15 K, m1 = 1.132	1024.37	1599.8	1.041

NCCCCC(=O)O [5-aminovaleric acid] + O
Settings	mass density [kg/m3]	speed of sound [m/s]	viscosity [mPa·s]
288.15 K, m1 = 0.1389	1003.29	1481	1.215
288.15 K, m1 = 0.2789	1007.34	1495.3	1.293
288.15 K, m1 = 0.4193	1011.22	1509.3	1.38
288.15 K, m1 = 0.5604	1014.96	1523	1.473
288.15 K, m1 = 0.7025	1018.54	1536.5	1.575
288.15 K, m1 = 0.8448	1021.98	1549.8	1.685
293.15 K, m1 = 0.1389	1002.34	1496.8	1.073
293.15 K, m1 = 0.2789	1006.33	1510.7	1.135
293.15 K, m1 = 0.4193	1010.16	1524.2	1.208
293.15 K, m1 = 0.5604	1013.85	1537.5	1.289
293.15 K, m1 = 0.7025	1017.4	1550.4	1.376
293.15 K, m1 = 0.8448	1020.81	1562.9	1.477
298.15 K, m1 = 0.1389	1001.15	1510.3	0.946
298.15 K, m1 = 0.2789	1005.16	1523.7	1.003
298.15 K, m1 = 0.4193	1009.06	1536.7	1.063
298.15 K, m1 = 0.5604	1012.86	1549.3	1.143
298.15 K, m1 = 0.7025	1016.56	1561.6	1.215
298.15 K, m1 = 0.8448	1020.15	1573.5	1.301
303.15 K, m1 = 0.1389	999.722	1522.1	0.853
303.15 K, m1 = 0.2789	1003.72	1534.9	0.893
303.15 K, m1 = 0.4193	1007.61	1547.4	0.95
303.15 K, m1 = 0.5604	1011.41	1559.5	1.013
303.15 K, m1 = 0.7025	1015.13	1571.3	1.077
303.15 K, m1 = 0.8448	1018.76	1582.7	1.158
308.15 K, m1 = 0.1389	998.079	1532.3	0.762
308.15 K, m1 = 0.2789	1002.05	1544.6	0.8
308.15 K, m1 = 0.4193	1005.91	1556.5	0.848
308.15 K, m1 = 0.5604	1009.68	1568.2	0.9
308.15 K, m1 = 0.7025	1013.37	1579.4	0.957
308.15 K, m1 = 0.8448	1016.96	1590.2	1.019
